In patent US20250205200A1, “5-METHOXY-N,N-[…][…] THE TREATMENT OF […]” (GH RESEARCH IRELAND LIMITED, priority 2022, published 2025):

System: patients with postpartum depression (PPD)
Experiment: Clinical trial of inhaled 5-MeO-DMT (individualized dosing regimen) in postpartum depression; one patient, 6 mg then 12 mg
Settings: n=1; for MADRS Concentration Difficulties improvement / MADRS Concentration Difficulties score / MADRS Reduced appetite improvement / MADRS Reduced appetite score / MADRS Suicidal Thoughts improvement / MADRS Suicidal Thoughts score: baseline 0; for MADRS Inability to Feel improvement / MADRS Inability to Feel score / MADRS Lassitude improvement / MADRS Lassitude score: baseline 3; for MADRS Pessimistic Thoughts improvement / MADRS Pessimistic Thoughts score / MADRS Reported sadness improvement / MADRS Reported sadness score: baseline 4
Description: The single-arm, open-label clinical trial will involve 15 adult female patients with clinically diagnosed postpartum depression (PPD).
The second dose (12 mg) will only be administered if: • a. […] The 6 mg dose was safe and well-tolerated according to the investigator, • c. Any psychoactive effects (PsE) of the prior dose have subsided, and • d. Pre-dose vital parameters and forced expiratory volume in one second (FEV1) are in normal range, or if outside of the normal range, are not clinically significant according to the investigator. • 3. Similarly, a third dose (18 mg) will only be administered if: • a. […] The 12 mg dose was safe and well-tolerated according to the investigator, and • c. Any PsE of the prior dose have subsided, and • d. Pre-dose vital parameters and forced expiratory volume in one second (FEV1) are in normal range, or if outside of the normal range, are not clinically significant according to the investigator.
The patients will be assessed for a peak psychedelic experience (based on a patient-scored visual analogue scale, the PE scale), sedation, and other endpoints after dosing.
Follow-up visits are planned for Day 1, and Day 7 after the dosing day.
The following criteria must be met by all patients considered for clinical trial participation: • 1. Is female and in the age range between 18 and 45 years (inclusive) at screening. • 2. Has a body mass index (BMI) in the range of 18.5 and 35 kg/m^2 (inclusive) at screening. • 3. Meets the trial criteria for PPD as assessed by a trial psychiatrist or registered psychologist: • a. Diagnosis of Major Depressive Disorder without psychotic features, confirmed by the Mini-International Neuropsychiatric Interview (MINI), with peri-partum onset that began no earlier than gestation and no later than the first 4 weeks postpartum. • b. Has a Montgomery-Åsberg Depression Rating Scale (MADRS) total score of equal to or greater than 28 at screening and pre-dose on Day 0. • 6. […] Patients must have a negative pregnancy test at screening and on the pre-test day (Day −1). • 5. Is willing to delay start of other antidepressant or anxiety medication until after the end of the trial at Day 7 and agrees to keep any psychotherapy unchanged during the trial.
A potential patient who meets any of the following key exclusion criteria will be excluded from participation in this trial: • 1. Has, based on history, psychiatric assessment, and evaluation of the MINI, a current or prior diagnosis of bipolar disorder, a manic or hypomanic episode, a psychotic disorder, Major Depressive Disorder (MDD) or other mood disorder with psychotic features, obsessive compulsive disorder, post-traumatic stress disorder (PTSD), autism spectrum disorder, borderline personality disorder, schizophrenia, delusional disorder, paranoid personality disorder, schizoaffective disorder, clinically significant intellectual disability, or any other psychiatric comorbidity that renders the patient unsuitable for the trial according to the investigator's judgment. • 2. Has one or more first or second degree relatives with a current or previously diagnosed bipolar disorder, psychotic disorder or other mood disorder (including MDD) with psychotic features. • 3. Is in the judgement of a trial psychiatrist or registered psychologist, at significant risk for suicide based on history, psychiatric assessment, and evaluation of suicidal ideation and suicidal behaviour based on the Columbia-Suicide Severity Rating Scale (C-SSRS). • 4. Has taken anti-depressive medication within 14 days or 5 half-lives (whichever is longer) prior to dosing (exception: within the last 5 weeks in the case of fluoxetine). • 5.

COc1ccc2[nH]cc(CCN(C)C)c2c1 [5-MeO-DMT]
Adverse events (cramping left abdominal pain and headache, Day 0): mild, short-lasting and resolved spontaneously
Criteria for MADRS response (at least 50% improvement) and MADRS remission (total score <=10): fulfilled standard criteria
ECG (3 hours), safety laboratory analyses (7 days), CADSS (3 hours, 1 day, 7 days): unremarkable
Tolerability of IDR (6 mg followed by 12 mg, inhalation): well tolerated
Tolerability of the inhalation procedure: well tolerated with no inhalation-related adverse events
MADRS Concentration Difficulties improvement (2 hr): 0
MADRS Concentration Difficulties score (2 hr): 0
MADRS Reduced appetite improvement (2 hr): 0
MADRS Reduced appetite score (2 hr): 0
MADRS Suicidal Thoughts improvement (2 hr): 0
MADRS Suicidal Thoughts score (2 hr): 0
MADRS Inability to Feel improvement (2 hr): 3
MADRS Inability to Feel score (2 hr): 0
MADRS Lassitude improvement (2 hr): 3
MADRS Lassitude score (2 hr): 0
MADRS Pessimistic Thoughts improvement (2 hr): 4
MADRS Pessimistic Thoughts score (2 hr): 0
MADRS Reported sadness improvement (2 hr): 4
MADRS Reported sadness score (2 hr): 0
MADRS Apparent sadness improvement (2 hr, baseline 5): 5
MADRS Apparent sadness score (2 hr, baseline 5): 0
MADRS Inner Tension improvement (2 hr, baseline 5): 5
MADRS Inner Tension score (2 hr, baseline 5): 0
MADRS Reduced Sleep improvement (2 hr, baseline 5): 0
MADRS Reduced Sleep score (2 hr, baseline 5): 5
MADRS Concentration Difficulties improvement (Day 1): 0
MADRS Concentration Difficulties score (Day 1): 0
MADRS Reduced appetite improvement (Day 1): 0
MADRS Reduced appetite score (Day 1): 0
MADRS Suicidal Thoughts improvement (Day 1): 0
MADRS Suicidal Thoughts score (Day 1): 0
BPRS Blunted affect improvement (Day 1, baseline 1): 0
BPRS Blunted affect score (Day 1, baseline 1): 1
BPRS Conceptual disorganization improvement (Day 1, baseline 1): 0
BPRS Conceptual disorganization score (Day 1, baseline 1): 1
BPRS Disorientation improvement (Day 1, baseline 1): 0
BPRS Disorientation score (Day 1, baseline 1): 1
BPRS Grandiosity improvement (Day 1, baseline 1): 0
BPRS Grandiosity score (Day 1, baseline 1): 1
BPRS Hallucinatory behaviour improvement (Day 1, baseline 1): 0
BPRS Hallucinatory behaviour score (Day 1, baseline 1): 1
BPRS Hostility improvement (Day 1, baseline 1): 0
BPRS Hostility score (Day 1, baseline 1): 1
BPRS Mannerisms and Posturing improvement (Day 1, baseline 1): 0
BPRS Mannerisms and Posturing score (Day 1, baseline 1): 1
BPRS Motor retardation improvement (Day 1, baseline 1): 0
BPRS Motor retardation score (Day 1, baseline 1): 1
BPRS Suspiciousness improvement (Day 1, baseline 1): 0
BPRS Suspiciousness score (Day 1, baseline 1): 1
BPRS Uncooperativeness improvement (Day 1, baseline 1): 0
BPRS Uncooperativeness score (Day 1, baseline 1): 1
BPRS Unusual Thought Content improvement (Day 1, baseline 1): 0
BPRS Unusual Thought Content score (Day 1, baseline 1): 1
BPRS Excitement improvement (Day 1, baseline 2): 1
BPRS Excitement score (Day 1, baseline 2): 1
MADRS Inability to Feel improvement (Day 1): 3
MADRS Inability to Feel score (Day 1): 0
MADRS Lassitude improvement (Day 1): 3
MADRS Lassitude score (Day 1): 0
MADRS Pessimistic Thoughts improvement (Day 1): 4
MADRS Pessimistic Thoughts score (Day 1): 0
MADRS Reported sadness improvement (Day 1): 4
MADRS Reported sadness score (Day 1): 0
BPRS Emotional withdrawal improvement (Day 1, baseline 5): 4
BPRS Emotional withdrawal score (Day 1, baseline 5): 1
MADRS Apparent sadness improvement (Day 1, baseline 5): 5
MADRS Apparent sadness score (Day 1, baseline 5): 0
MADRS Inner Tension improvement (Day 1, baseline 5): 5
MADRS Inner Tension score (Day 1, baseline 5): 0
MADRS Reduced Sleep improvement (Day 1, baseline 5): 5
MADRS Reduced Sleep score (Day 1, baseline 5): 0
BPRS Depressive Mood improvement (Day 1, baseline 6): 5
BPRS Depressive Mood score (Day 1, baseline 6): 1
BPRS Guilt feelings improvement (Day 1, baseline 6): 5
BPRS Guilt feelings score (Day 1, baseline 6): 1
BPRS Somatic Concern improvement (Day 1, baseline 6): 5
BPRS Somatic Concern score (Day 1, baseline 6): 1
BPRS Tension score (Day 1, baseline 6): 1
BPRS Anxiety improvement (Day 1, baseline 7): 6
BPRS Anxiety score (Day 1, baseline 7): 1
BIMF item 2 (I feel rested) score (Day 7, Day 0 score 0): 2
BIMF item 19 (getting better at taking care of my baby) score (Day 7, Day 0 score 0): 1
BIMF item 18 (Anxiety or worry often interferes with my mothering ability) score (Day 7, Day 0 score 2): 5
BIMF item 16 (I worry about how other people judge me (as a mother)) score (Day 7, Day 0 score 3): 5
BIMF item 13 (taking good care of my physical needs) score (Day 7, Day 0 score 4): 5
BIMF item 4 (My baby and I understand each other) score (Day 7, Day 0 score 5): 5
BIMF item 5 (able to relax and enjoy time with my baby) score (Day 7, Day 0 score 5): 6
BIMF item 9 (getting enough encouragement from other people) score (Day 7, Day 0 score 5): 6
BIMF item 10 (I trust my own feelings (instincts) when taking care of my baby) score (Day 7, Day 0 score 5): 6
BIMF item 11 (I take a little time each week to do something for myself) score (Day 7, Day 0 score 5): 6
BIMF item 15 (My baby and I are getting into a routine) score (Day 7, Day 0 score 5): 6
BIMF item 17 (able to take care of my baby and my other responsibilities) score (Day 7, Day 0 score 5): 5
BIMF item 1 (I am a good mother) score (Day 7, Day 0 score 6): 6
BIMF item 3 (comfortable with the way I've chosen to feed my baby) score (Day 7, Day 0 score 6): 6
BIMF item 6 (people I can trust to care for my baby when I need a break) score (Day 7, Day 0 score 6): 6
BIMF item 8 (getting enough adult interaction) score (Day 7, Day 0 score 6): 6
BIMF item 12 (taking good care of my baby's physical needs) score (Day 7, Day 0 score 6): 6
BIMF item 14 (good decisions about my baby's health and well being) score (Day 7, Day 0 score 6): 6
BIMF item 20 (satisfied with the job I am doing as a new mother) score (Day 7, Day 0 score 6): 5
MADRS Concentration Difficulties improvement (Day 7): 0
MADRS Concentration Difficulties score (Day 7): 0
MADRS Reduced appetite improvement (Day 7): 0
MADRS Reduced appetite score (Day 7): 0
